From patent US9006415B2, “Targeted delivery of nucleic acids” (Massachusetts Institute of Technology, priority 2010, dated 2015)

Columns and labels:
p32 receptor = target: T1, p32 receptor (Homo sapiens, UniProt Q07021); assay: Competition of GFP silencing with free LyP-1 peptide; assay type: cell-based; details: nanocomplexes on HeLa cells
T1 construct: incubated over Hela cells, which express p32 on the cell surface; endogenous in cells; host or cells: HeLa (stably expressing dGFP)
T1 sequence (Q07021 74-282): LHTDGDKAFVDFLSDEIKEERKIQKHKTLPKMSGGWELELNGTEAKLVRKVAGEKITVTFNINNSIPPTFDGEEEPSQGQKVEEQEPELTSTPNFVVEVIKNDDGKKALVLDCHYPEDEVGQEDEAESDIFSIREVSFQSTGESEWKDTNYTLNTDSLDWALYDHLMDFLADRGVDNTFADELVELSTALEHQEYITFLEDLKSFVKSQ
Protocol: For the initial screen, HeLa cells stably expressing destabilized GFP were cultured in 96-well plates to ˜70-80% confluence. siRNA (0-100 nM) was incubated with 20-fold molar excess of tetramethylrhodamine-labelled tandem peptides in PBS for 10-15 min at room temperature, then incubated over cells in DMEM for 4 h at 37° C., after which the medium was replaced. The complexes were then added to HeLa cell cultures and incubated for 4 h at 37° C., after which the medium was replaced with 100 μL of fresh medium with 10% serum. […] For competition experiments with free LyP-1 peptide, cells were pre-incubated with unlabeled LyP-1 peptide or ARAL control peptide at specified concentrations for 1 h at 37° C. before treatment with peptide/siRNA complexes.

HeLa cells = assay: Inhibition of endocytosis (uptake and GFP knockdown with small molecule inhibitors); assay type: cell-based, human; details: HeLa cells pre-incubated with inhibitor 1 h
Protocol: HeLa cells grown in 96-well plates at ˜70% confluence were incubated with small molecule inhibitors for 1 h at 37° C., followed by incubation with tetramethylrhodamine-labeled TP-LyP1 (3 μM) or TPNs containing both labeled peptide (3 μM) and GFP siRNA (100 nM) for an additional hour at 37° C. The cells were washed three times with cold PBS and were subsequently either imaged with a CCD camera mounted on a Nikon TE200 inverted epifluorescence microscope (for peptide-only), or trypsinized for flow cytometry analysis by the BD-LSR II system to assess GFP expression (for incubations with nanocomplexes).
To identify the mechanism by which tandem peptides enter cells, these experiments were repeated in the presence of a variety of endocytosis inhibitors [Veldhoen, S., Laufer, S. D., Trampe, A. & Restle, T. Cellular delivery of small interfering RNA by a non-covalently attached cell-penetrating peptide: quantitative analysis of uptake and biological effect. Nucleic Acids Res 34, 6561-6573, (2006)]. […] Thus, tandem peptides are taken up by cells mainly via macropinocytosis and lipid-raft.

tumor parenchyma = assay: Tumor penetration with iRGD in place of Lyp-1; assay type: in vivo; details: data not shown

Molecule	effect of control peptide on GFP silencing (p32 receptor)	GFP knockdown in presence of inhibitor (HeLa cells)	cell binding of tandem peptide in presence of inhibitor (HeLa cells)	tumor penetration (tumor parenchyma)
ARALPSQRSR [control peptide]	no effect	–	–	–
CCCCCCCCCC(=O)NC(CN1CCOCC1)C(O)c1ccccc1 (stereo not drawn) [PDMP]	–	significantly decreased	significantly decreased	–
OC[C@H]1O[C@@H]2O[C@H]3[C@H](O)[C@@H](O)[C@@H](O[C@H]4[C@H](O)[C@@H](O)[C@@H](O[C@H]5[C@H](O)[C@@H](O)[C@@H](O[C@H]6[C@H](O)[C@@H](O)[C@@H](O[C@H]7[C@H](O)[C@@H](O)[C@@H](O[C@H]8[C@H](O)[C@@H](O)[C@@H](O[C@H]1[C@H](O)[C@H]2O)O[C@@H]8CO)O[C@@H]7CO)O[C@@H]6CO)O[C@@H]5CO)O[C@@H]4CO)O[C@@H]3CO [β-cyclodextrin]	–	significantly decreased	significantly decreased	–
N=C(N)NC(=O)c1nc(Cl)c(N)nc1N [amiloride]	–	significantly decreased	significantly decreased	–
CRGDKGPDC [iRGD]	–	–	–	penetrate tumor parenchyma in a to time-dependent manner
OCC1OC(O)CC(O)C1O (stereo not drawn) [Deoxyglucose]	–	inhibited GFP knockdown	–	–
